Test results: US20230416205A1, “COMPOUNDS, COMPOSITIONS, AND METHODS” (Denali Therapeutics Inc, priority 2020, published 2023)
Like-named read-outs stand apart in the source and are kept apart here.

System: NLRP3
Assay: IL-1β secretion assay in PMA-differentiated, LPS/nigericin-stimulated THP-1 cells (384-well, ELISA read-out)
Type: cell-based, human
Procedure: Compounds as provided herein were tested in the following assay. Cell culture medium employed contained RPMI 1640 medium (89%), FBS (10%), Pen/Strep (1%), and 2-mercaptoethanol (0.05 mM). Freezing medium was made up of 90% FBS and 10% DMSO. THP-1 cells were removed from the liquid nitrogen and placed into a 37° C. water bath to thaw, until signs of ice dissipated. The cells were then added to 9 mL of warm cell culture medium and centrifuged for 5 minutes at 1000 rpm. The supernatant was discarded, and the cells were resuspended in new cell culture medium. THP-1 cells were then split and cultured in the cell culture medium, being passaged every 2-3 days with the cell density will be maintained between 5×10^5 and 1.5×10^6 viable cells/mL.
To freeze, cells were resuspended with fresh freezing medium, adjusting the cell density to 5×10^6 cells/mL. The cell suspension was partitioned into 1 mL aliquots per vial, and the vials were transferred to a −80° C. freezer. After one day at −80° C., the cell vials were transferred to liquid nitrogen freezer for storage.
PMA was dissolved in DMSO to make a stock solution at 5 mg/mL and stored in 10 μl aliquots at −20° C. for single use. PMA is added to normal growth medium. LPS was diluted with 1 mL of water solution to provide a 1 mg/mL stock solution and stored in 15 μl aliquots at −20° C. for single use. Nigericin is diluted in ice cold 100% ethanol to 5 mg/mL (6.7 mM) and stored in 75 μL aliquots at −20° C. for single use. Serum-free media contains RPMI 1640 medium (99%), Pen/Strep (1%), and 2-mercaptoethanol (0.05 mM). The two control conditions used to qualify and normalize test compound dose-response curves were as follows: High Control=25 ng/mL LPS, 5 μM Nigericin, 0.5% DMSO, Low Control=25 ng/mL, LPS, 0.5% DMSO.
THP-1 cells were diluted to provide a suspension at a concentration of 1.0×10^6 cells/mL with the total volume of suspension required to enable the desired number of assay plates. The growth media was supplemented with PMA (5 ng/mL final concentration) and the cells were incubated at 37° C. under a humidified atmosphere of 5% CO2 for 40 h.
All media was carefully aspirated from each culture flask. The cells were washed carefully with 1×DPBS. The cells were then briefly digested with trypsin LE for 5 minutes at 23° C., and immediately resuspended in cell growth media. After resuspension, the cells were centrifuged at 1000 rpm for 3 minutes and the supernatant was discarded. The cells were resuspended in DPBS and once again centrifuged at 1000 rpm for 5 minutes. The supernatant was discarded and the cell pellet was resuspended in serum-free media supplemented with LPS (25 ng/mL final concentration) to enable the distribution of 30K THP-1 cells within 45 μL of media into each well of 384-well PDL-coated plates. The 384-well plates were then incubated at 37° C. under a humidified atmosphere of 5% CO2 for 2 h. Following this period, test compounds were dispensed by Tecan across the desired concentration range with all wells normalized to a final 0.5% DMSO concentration. The plates were then incubated at 37° C. under a humidified atmosphere of 5% CO2 for 1 h. Following this period, 5 μL of the […] was added to each of the appropriate wells and plates were centrifuged at 1000 rpm for 30 seconds. The plates were the immediately reintroduced to the incubator at 37° C. under a humidified atmosphere of 5% CO2 for 2 h. After this time, 35 μL/well of supernatant was collected and transferred into v-bottom plate and centrifuged at 1000 rpm for 1 minute. These supernatant aliquots were analyzed using an IL-Iβ detection kit as described below. If needed, the test samples could be snap frozen and stored at −80° C. until analyzed.
To prepare each ELISA plate, capture antibody (mAb Mt175) was diluted with PBS to a final concentration of 2 μg/mL and then 20 μL of this solution was added to each well of the ELISA plate. Each plate was allowed to incubate overnight at 4° C.

[1] = Table 4, IL-1β secretion, LPS/nigericin-stimulated THP-1 cells, read-out: IC50
[2] = Homo sapiens, THP-1, IL-1β secretion, PMA-differentiated THP-1 cells, LPS then nigericin stimulation, ELISA read at 450 nm, read-out: Activity
[3] = Homo sapiens, THP-1, Table 4, IL-1β secretion, LPS/nigericin-stimulated THP-1 cells, read-out: IC50

| Compound | IC50 (IL-1β secretion, PMA-differentiated THP-1 cells, LPS then nigericin stimulation, ELISA read at 450 nm, read-out: Activity) | IC50 [1] | IC50 [2] | IC50 [3] |
| --- | --- | --- | --- | --- |
| N#C[C@H]1C[C@@]12CN(CC(=O)Nc1ncc(F)cn1)C(=O)c1ccc(Br)cc12 (single isomer, unassigned) [Example 287, 2-[(2′s,4r)-6-bromo-2′-cyano-1-oxospiro[3H-isoquinoline-4,1′-cyclopropane]-2-yl]-N-(5-fluoropyrimidin-2-yl)acetamide] | < 10000 nM | 251 nM |  |  |
| O=C(CN1CC2(CC2)c2cc(Br)ccc2C1=O)NC1CC(O)(C(F)(F)F)C1 (stereo not drawn) [Example 55, 2-(6-bromo-1-oxo-spiro[3H-isoquinoline-4,1′-cyclopropane]-2-yl)-N-[cis-3-hydroxy-3-(trifluoromethyl)cyclobutyl]acetamide] |  |  | < 10000 nM | 861 nM |
| O=C(CN1C[C@@]2(C[C@@H]2F)c2c(ccc(Br)c2F)C1=O)Nc1ncc(Cl)cn1 (single isomer, unassigned) [Example 222, 2-[(2′s,4r)-6-bromo-2′,5-difluoro-1-oxospiro[3H-isoquinoline-4,1′-cyclopropane]-2-yl]-N-(5-chloropyrimidin-2-yl)acetamide] |  |  | < 10000 nM | 11 nM |
| O=C(CN1CC2(CC2)c2cc(Br)ccc2C1=O)N[C@@H]1CCCN(C2CCC2)C1 [Example 70, 2-(6-bromo-1-oxo-spiro[3H-isoquinoline-4,1′-cyclopropane]-2-yl)-N-[(3R)-1-cyclobutyl-3-piperidyl]acetamide] |  |  | < 10000 nM | 191 nM |
| O=C(CN1CC2(CC2)c2cc(Br)ccc2C1=O)NC1CC(C(F)F)C1 (stereo not shown) [Example 111, 2-(6-bromo-1-oxospiro[3H-isoquinoline-4,1′-cyclopropane]-2-yl)-N-[3-(difluoromethyl)cyclobutyl]acetamide] |  |  | < 10000 nM | 2420 nM |
| CC12CC(NC(=O)CN3CC4(CC4)c4cc(Br)ccc4C3=O)(CO1)C2 [Example 53, 2-(6-bromo-1-oxo-spiro[3H-isoquinoline-4,1′-cyclopropane]-2-yl)-N-(1-methyl-2-oxabicyclo[2.1.1]hexan-4-yl)acetamide] |  |  | < 10000 nM | 7830 nM |
| Cc1cnc(NC(=O)CN2C[C@]3(C[C@H]3F)c3cc(Br)ccc3C2=O)nc1 [Example 274] |  |  | < 10000 nM | 23 nM |
| COc1cnc(NC(=O)CN2CC3(CC3)c3cc(Br)ccc3C2=O)nc1 [Example 185, 2-(6-bromo-1-oxospiro[3H-isoquinoline-4,1′-cyclopropane]-2-yl)-N-(5-methoxypyrimidin-2-yl)acetamide] |  |  | < 10000 nM | 469 nM |
| COC1(C)CC(NC(=O)CN2CC3(CC3)c3cc(Br)ccc3C2=O)C1 (stereo not drawn) [Example 341, 2-(6-bromo-1-oxospiro[3H-isoquinoline-4,1′-cyclopropane]-2-yl)-N-(3-cis-methoxy-3-methylcyclobutyl)acetamide] |  | 2410 nM |  |  |
| CC1(O)CC(NC(=O)CN2C[C@@]3(C[C@@H]3F)c3cc(C(F)(F)F)ccc3C2=O)C1 (single isomer, unassigned) [Example 328, N-(3-cis-hydroxy-3-methylcyclobutyl)-2-[(2′s,4r)-2′-fluoro-1-oxo-6-(trifluoromethyl)spiro[3H-isoquinoline-4,1′-cyclopropane]-2-yl]acetamide] |  | 67 nM |  |  |
| Cc1c(NC(=O)CN2CC3(CC3)c3cc(Br)ccc3C2=O)nn2ccccc12 [Example 402, 2-(6-bromo-1-oxospiro[3H-isoquinoline-4,1′-cyclopropane]-2-yl)-N-(3-methylpyrazolo[1,5-a]pyridin-2-yl)acetamide] |  |  |  | 9270 nM |
| CN1CC(NC(=O)CN2CC3(CC3)c3cc(Br)ccc3C2=O)CC1=O (stereo not shown) [Example 59, 2-(6-bromo-1-oxo-spiro[3H-isoquinoline-4,1′-cyclopropane]-2-yl)-N-(1-methyl-5-oxo-pyrrolidin-3-yl)acetamide] |  |  | > 15000 nM | 18300 nM |
| O=C(CN1CC2(CC2)c2cc(Br)ccc2C1=O)NCC1(CC(F)F)CCC1 [Example 112, 2-(6-bromo-1-oxospiro[3H-isoquinoline-4,1′-cyclopropane]-2-yl)-N-[[1-(2,2-difluoroethyl)cyclobutyl]methyl]acetamide] |  |  | > 15000 nM | 13000 nM |
| O=C(CN1CC2(CC2)c2cc(Br)ccc2C1=O)NC1CC2(CC2)C1 [Example 23, 2-(6-bromo-1-oxo-spiro[3H-isoquinoline-4,1′-cyclopropane]-2-yl)-N-spiro[2.3]hexan-5-yl-acetamide] |  |  | < 10000 nM | 1880 nM |
| O=C(CN1CC2(CC2)c2cc(Br)ccc2C1=O)Nc1nc2cccnc2o1 [Example 211, 2-(6-bromo-1-oxo-spiro[3H-isoquinoline-4,1′-cyclopropane]-2-yl)-N-oxazolo[5,4-b]pyridin-2-yl-acetamide] |  |  | < 10000 nM | 1180 nM |
| O=C(CN1CC2(CC2)c2cc(Br)ccc2C1=O)Nc1noc2ccccc12 [Example 377, N-(1,2-benzoxazol-3-yl)-2-(6-bromo-1-oxospiro[3H-isoquinoline-4,1′-cyclopropane]-2-yl)acetamide] |  |  |  | 2250 nM |
| O=C(CN1CC2(CC2)c2c(ccc(C3C[C@H]3F)c2F)C1=O)Nc1ncc(F)cn1 (single isomer, unassigned) [Example 303, 2-[5-fluoro-6-[(1r,2r)-2-fluorocyclopropyl]-1-oxospiro[3H-isoquinoline-4-1′-cyclopropane]-2-yl]-N-(5-fluoropyrimidin-2-yl)acetamide] |  |  |  | 1440 nM |
| Cc1cnc2ccc(NC(=O)CN3CC4(CC4)c4cc(Br)ccc4C3=O)nn12 [Example 399, 2-(6-bromo-1-oxospiro[3H-isoquinoline-4,1′-cyclopropane]-2-yl)-N-(3-methylimidazo[1,2-b]pyridazin-6-yl)acetamide] |  |  |  | 1350 nM |
| CC1(c2ccc3c(c2)C2(CC2)CN(CC(=O)Nc2ncc(F)cn2)C3=O)CC1 [Example 97, N-(5-fluoropyrimidin-2-yl)-2-[6-(1-methylcyclopropyl)-1-oxospiro[3H-isoquinoline-4,1′-cyclopropane]-2-yl]acetamide] |  |  | < 10000 nM | 1220 nM |
| Cc1c(C#N)cnc(NC(=O)CN2CC3(CC3)c3cc(Br)ccc3C2=O)c1F [Example 389, 2-(6-bromo-1-oxospiro[3H-isoquinoline-4,1′-cyclopropane]-2-yl)-N-(5-cyano-3-fluoro-4-methylpyridin-2-yl)acetamide] |  |  |  | 546 nM |
| CC(F)c1ccc2c(c1)C1(CC1)CN(CC(=O)Nc1ncc(F)cn1)C2=O (stereo not shown) [Example 312, 2-[6-(1-fluoroethyl)-1-oxospiro[3H-isoquinoline-4,1′-cyclopropane]-2-yl]-N-(5-fluoropyrimidin-2-yl)acetamide] |  |  |  | 1020 nM |
| O=C(CN1CC2(CC2)c2cc(Br)ccc2C1=O)NC1CC(OCc2ccccc2)C1 (stereo not drawn) [Example 357, 2-(6-bromo-1-oxospiro[3H-isoquinoline-4,1′-cyclopropane]-2-yl)-N-(3-trans-phenylmethoxycyclobutyl)acetamide] |  |  |  | 5210 nM |
| O=C(CN1CC2(CC2)c2cc(Br)ccc2C1=O)Nc1ncn(C2CC2)n1 [Example 422, 2-(6-bromo-1-oxospiro[3H-isoquinoline-4,1′-cyclopropane]-2-yl)-N-(1-cyclopropyl-1,2,4-triazol-3-yl)acetamide] |  |  |  | 3080 nM |
| N#Cc1cccc2oc(NC(=O)CN3CC4(CC4)c4cc(Br)ccc4C3=O)nc12 [Example 356, 2-(6-bromo-1-oxospiro[3H-isoquinoline-4,1′-cyclopropane]-2-yl)-N-(4-cyano-1,3-benzoxazol-2-yl)acetamide] |  |  |  | 2300 nM |
